Assays:
Test in all cases: radiometric filter-binding kinase assay, Kinase HotSpot
Conditions in all cases: compound 0.5 µM; ATP 10 µM
AKT2 (human) = AKT2 (human) (UniProt P31751)
BLK (human) = BLK (human) (UniProt P51451)
BMX (human) = BMX (human) (UniProt P51813)
CDK4 CCND3 (human) = CDK4 CCND3 (human) (UniProt P30281+P11802)
CDK5 CDK5R1 p25 (human) = CDK5 CDK5R1 p25 (human) (UniProt Q00535+Q15078)
CDK7 CCNH MNAT1 (human) = CDK7 CCNH MNAT1 (human) (UniProt P50613+P51948+P51946)
CSNK1D (human) = CSNK1D (human) (UniProt P48730)
DCLK2 (human) = DCLK2 (human) (UniProt Q8N568)
DDR2 (human) = DDR2 (human) (UniProt Q16832)
DMPK (human) = DMPK (human) (UniProt Q09013)
EPHA7 (human) = EPHA7 (human) (UniProt Q15375)
EPHA8 (human) = EPHA8 (human) (UniProt P29322)
FGFR1 (human) = FGFR1 (human) (UniProt P11362)
FGFR3 (human) = FGFR3 (human) (UniProt P22607)
GRK4 (human) = GRK4 (human) (UniProt P32298)
GSG2 (human) = GSG2 (human) (UniProt Q8TF76)
HCK (human) = HCK (human) (UniProt P08631)
HIPK2 (human) = HIPK2 (human) (UniProt Q9H2X6)
IKBKE (human) = IKBKE (human) (UniProt Q14164)
INSRR (human) = INSRR (human) (UniProt P14616)
MAPK12 (human) = MAPK12 (human) (UniProt P53778)
MAPK13 (human) = MAPK13 (human) (UniProt O15264)
MARK4 (human) = MARK4 (human) (UniProt Q96L34)
MST4 (human) = MST4 (human) (UniProt Q9P289)
NEK7 (human) = NEK7 (human) (UniProt Q8TDX7)
PAK4 (human) = PAK4 (human) (UniProt O96013)
PKN2 (human) = PKN2 (human) (UniProt Q16513)
PKN2 (human), sequence (Q16513 whole entry, looked up): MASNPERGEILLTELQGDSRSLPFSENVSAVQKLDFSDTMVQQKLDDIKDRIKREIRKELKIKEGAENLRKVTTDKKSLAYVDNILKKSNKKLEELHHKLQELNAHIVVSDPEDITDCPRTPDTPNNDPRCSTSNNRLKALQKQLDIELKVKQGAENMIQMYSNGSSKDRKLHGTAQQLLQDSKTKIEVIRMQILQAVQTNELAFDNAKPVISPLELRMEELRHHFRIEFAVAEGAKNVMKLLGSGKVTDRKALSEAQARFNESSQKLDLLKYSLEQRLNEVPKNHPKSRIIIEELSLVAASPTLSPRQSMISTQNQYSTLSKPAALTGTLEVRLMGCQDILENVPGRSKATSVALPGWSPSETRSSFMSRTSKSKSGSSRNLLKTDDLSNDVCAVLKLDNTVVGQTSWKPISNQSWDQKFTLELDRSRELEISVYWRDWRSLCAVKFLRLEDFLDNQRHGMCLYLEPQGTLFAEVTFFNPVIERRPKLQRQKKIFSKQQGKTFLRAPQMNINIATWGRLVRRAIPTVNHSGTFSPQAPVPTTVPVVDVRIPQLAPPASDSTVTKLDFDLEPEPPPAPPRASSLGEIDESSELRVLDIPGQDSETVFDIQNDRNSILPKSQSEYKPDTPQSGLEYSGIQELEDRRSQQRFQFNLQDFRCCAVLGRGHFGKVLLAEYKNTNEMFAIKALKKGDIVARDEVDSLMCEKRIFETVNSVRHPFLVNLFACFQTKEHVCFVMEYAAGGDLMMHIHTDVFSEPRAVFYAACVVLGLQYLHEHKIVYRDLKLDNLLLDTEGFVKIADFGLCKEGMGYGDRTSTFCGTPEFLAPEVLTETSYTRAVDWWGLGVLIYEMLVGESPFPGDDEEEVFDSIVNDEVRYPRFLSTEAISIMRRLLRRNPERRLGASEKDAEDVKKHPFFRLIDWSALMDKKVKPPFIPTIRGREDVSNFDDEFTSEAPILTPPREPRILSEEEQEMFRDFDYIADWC

PLK1 (human) = PLK1 (human) (UniProt P53350)
PLK1 (human), sequence (P53350 whole entry, looked up): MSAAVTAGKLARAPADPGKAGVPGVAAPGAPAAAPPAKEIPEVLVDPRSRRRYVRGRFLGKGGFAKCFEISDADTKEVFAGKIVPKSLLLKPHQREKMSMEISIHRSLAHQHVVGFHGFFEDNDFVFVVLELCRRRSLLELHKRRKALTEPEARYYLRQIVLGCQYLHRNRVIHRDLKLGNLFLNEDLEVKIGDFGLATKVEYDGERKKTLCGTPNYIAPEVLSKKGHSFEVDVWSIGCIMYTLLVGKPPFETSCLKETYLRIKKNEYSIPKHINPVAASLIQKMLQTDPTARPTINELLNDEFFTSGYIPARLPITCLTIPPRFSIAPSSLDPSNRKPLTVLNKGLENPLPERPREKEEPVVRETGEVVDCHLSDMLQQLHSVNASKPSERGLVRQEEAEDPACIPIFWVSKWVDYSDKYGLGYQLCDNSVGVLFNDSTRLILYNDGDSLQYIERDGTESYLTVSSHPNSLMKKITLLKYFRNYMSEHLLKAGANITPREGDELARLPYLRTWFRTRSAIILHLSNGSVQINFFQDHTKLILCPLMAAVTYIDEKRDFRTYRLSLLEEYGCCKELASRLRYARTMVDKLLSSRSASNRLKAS

PRKCB1 (human) = PRKCB1 (human) (UniProt P05771)
PRKCZ (human) = PRKCZ (human) (UniProt Q05513)
PRKCZ (human), sequence (Q05513 whole entry, looked up): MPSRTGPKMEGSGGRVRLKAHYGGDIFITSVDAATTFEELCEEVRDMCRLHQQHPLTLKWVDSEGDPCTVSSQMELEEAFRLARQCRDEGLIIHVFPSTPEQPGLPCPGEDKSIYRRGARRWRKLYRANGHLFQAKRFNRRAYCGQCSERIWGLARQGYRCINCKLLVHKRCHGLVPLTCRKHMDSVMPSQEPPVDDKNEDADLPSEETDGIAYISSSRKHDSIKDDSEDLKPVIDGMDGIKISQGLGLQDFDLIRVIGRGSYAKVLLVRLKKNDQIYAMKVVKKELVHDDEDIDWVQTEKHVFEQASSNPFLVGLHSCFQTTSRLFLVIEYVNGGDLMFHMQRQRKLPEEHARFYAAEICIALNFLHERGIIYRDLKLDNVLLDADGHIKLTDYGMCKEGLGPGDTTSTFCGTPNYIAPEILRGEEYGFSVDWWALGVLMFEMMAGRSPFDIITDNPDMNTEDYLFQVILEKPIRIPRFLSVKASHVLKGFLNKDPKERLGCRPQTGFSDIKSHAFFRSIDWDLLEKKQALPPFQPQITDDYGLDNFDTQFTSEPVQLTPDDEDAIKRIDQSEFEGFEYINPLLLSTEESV

RPS6KA5 KD2 (human) = RPS6KA5 KD2 (human) (UniProt O75582)
RPS6KB2 (human) = RPS6KB2 (human) (UniProt Q9UBS0)
RPS6KB2 (human), sequence (Q9UBS0 whole entry, looked up): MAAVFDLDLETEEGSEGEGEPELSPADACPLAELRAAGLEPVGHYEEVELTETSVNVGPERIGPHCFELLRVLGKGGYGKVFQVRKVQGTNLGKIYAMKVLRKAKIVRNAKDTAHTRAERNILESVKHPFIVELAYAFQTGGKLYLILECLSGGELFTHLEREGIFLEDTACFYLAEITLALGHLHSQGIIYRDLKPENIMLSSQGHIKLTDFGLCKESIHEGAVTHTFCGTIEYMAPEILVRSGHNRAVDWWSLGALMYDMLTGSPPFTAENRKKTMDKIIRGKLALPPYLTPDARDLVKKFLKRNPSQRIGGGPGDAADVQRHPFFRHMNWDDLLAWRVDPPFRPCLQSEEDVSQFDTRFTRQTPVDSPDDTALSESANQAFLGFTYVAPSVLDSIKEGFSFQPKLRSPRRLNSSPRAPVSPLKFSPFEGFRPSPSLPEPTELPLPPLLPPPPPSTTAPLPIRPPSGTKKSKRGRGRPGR

SGK2 (human) = SGK2 (human) (UniProt Q9HBY8)
SRC (human) = SRC (human) (UniProt P12931)
STK11 (human) = STK11 (human) (UniProt Q15831)
STK17A (human) = STK17A (human) (UniProt Q9UEE5)
TAOK1 (human) = TAOK1 (human) (UniProt Q7L7X3)
TGFBR2 (human) = TGFBR2 (human) (UniProt P37173)
WEE1 (human) = WEE1 (human) (UniProt P30291)
WNK2 (human) = WNK2 (human) (UniProt Q9Y3S1)
YES1 (human) = YES1 (human) (UniProt P07947)
ZAP70 (human) = ZAP70 (human) (UniProt P43403)

CDK5 CDK5R1 p25 (human), sequence (Q00535 whole entry, looked up): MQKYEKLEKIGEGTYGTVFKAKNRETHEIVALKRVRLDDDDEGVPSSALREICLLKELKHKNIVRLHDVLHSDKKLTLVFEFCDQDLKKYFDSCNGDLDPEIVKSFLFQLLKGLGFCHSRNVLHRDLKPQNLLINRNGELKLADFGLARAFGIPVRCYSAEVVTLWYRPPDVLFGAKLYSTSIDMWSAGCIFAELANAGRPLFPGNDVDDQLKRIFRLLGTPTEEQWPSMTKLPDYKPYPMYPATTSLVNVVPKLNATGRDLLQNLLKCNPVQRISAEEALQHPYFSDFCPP
CDK5 CDK5R1 p25 (human), sequence (Q15078 whole entry, looked up): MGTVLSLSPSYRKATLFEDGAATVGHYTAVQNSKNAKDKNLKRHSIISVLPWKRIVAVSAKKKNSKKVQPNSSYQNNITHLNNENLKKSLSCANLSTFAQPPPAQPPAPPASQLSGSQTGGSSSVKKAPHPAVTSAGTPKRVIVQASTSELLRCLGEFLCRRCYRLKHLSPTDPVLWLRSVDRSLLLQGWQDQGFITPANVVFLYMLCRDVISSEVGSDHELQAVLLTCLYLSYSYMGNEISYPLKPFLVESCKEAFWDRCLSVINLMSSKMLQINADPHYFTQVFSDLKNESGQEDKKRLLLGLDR
CDK7 CCNH MNAT1 (human), sequence (P50613 whole entry, looked up): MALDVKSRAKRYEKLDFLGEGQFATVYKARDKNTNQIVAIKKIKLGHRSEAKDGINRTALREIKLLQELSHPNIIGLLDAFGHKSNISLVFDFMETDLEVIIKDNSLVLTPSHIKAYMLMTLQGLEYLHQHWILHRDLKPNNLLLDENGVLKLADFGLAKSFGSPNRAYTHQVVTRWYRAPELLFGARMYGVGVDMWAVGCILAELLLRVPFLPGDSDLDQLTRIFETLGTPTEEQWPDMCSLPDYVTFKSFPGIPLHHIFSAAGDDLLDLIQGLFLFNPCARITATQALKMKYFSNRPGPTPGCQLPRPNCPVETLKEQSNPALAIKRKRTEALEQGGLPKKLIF
CDK7 CCNH MNAT1 (human), sequence (P51946 whole entry, looked up): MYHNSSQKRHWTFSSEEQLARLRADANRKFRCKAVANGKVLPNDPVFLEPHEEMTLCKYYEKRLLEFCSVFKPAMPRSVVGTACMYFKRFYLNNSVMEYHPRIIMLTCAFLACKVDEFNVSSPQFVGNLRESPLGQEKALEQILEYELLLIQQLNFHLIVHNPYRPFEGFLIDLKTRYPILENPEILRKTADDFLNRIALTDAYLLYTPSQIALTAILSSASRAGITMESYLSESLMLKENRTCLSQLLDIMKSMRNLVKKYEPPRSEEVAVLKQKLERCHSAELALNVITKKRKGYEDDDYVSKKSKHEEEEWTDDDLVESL
CDK7 CCNH MNAT1 (human), sequence (P51948 whole entry, looked up): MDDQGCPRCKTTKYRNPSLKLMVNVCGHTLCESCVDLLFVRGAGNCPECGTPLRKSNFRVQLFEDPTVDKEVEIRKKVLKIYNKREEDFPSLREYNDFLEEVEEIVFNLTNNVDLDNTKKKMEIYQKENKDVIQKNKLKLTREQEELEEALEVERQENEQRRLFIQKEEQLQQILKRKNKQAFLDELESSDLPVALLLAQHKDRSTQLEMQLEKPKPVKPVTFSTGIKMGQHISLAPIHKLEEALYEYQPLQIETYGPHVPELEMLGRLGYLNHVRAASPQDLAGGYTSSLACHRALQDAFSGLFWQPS
BLK (human), sequence (P51451 whole entry, looked up): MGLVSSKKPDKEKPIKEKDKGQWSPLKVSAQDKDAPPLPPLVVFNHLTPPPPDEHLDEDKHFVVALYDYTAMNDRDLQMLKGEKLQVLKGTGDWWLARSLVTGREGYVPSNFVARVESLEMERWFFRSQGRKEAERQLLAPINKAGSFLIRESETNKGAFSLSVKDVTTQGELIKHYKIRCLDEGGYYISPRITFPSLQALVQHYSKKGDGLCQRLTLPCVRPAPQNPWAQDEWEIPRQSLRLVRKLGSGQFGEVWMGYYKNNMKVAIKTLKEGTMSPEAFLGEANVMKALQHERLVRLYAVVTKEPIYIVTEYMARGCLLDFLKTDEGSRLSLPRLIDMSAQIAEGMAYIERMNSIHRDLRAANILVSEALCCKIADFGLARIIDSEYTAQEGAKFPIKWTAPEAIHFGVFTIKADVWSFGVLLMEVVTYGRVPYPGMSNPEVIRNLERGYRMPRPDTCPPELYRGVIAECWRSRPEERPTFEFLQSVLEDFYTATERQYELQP

CCCC(=O)Oc1ccc2[nH]c(C(=O)c3cc4ccccc4[nH]3)cc2c1
residual activity (AKT2 (human)): 105% | residual activity (BLK (human)): 102% | residual activity (BMX (human)): 97.4% | residual activity (CDK4 CCND3 (human)): 103% | residual activity (CDK5 CDK5R1 p25 (human)): 90.1% | residual activity (CDK7 CCNH MNAT1 (human)): 98.7% | residual activity (CSNK1D (human)): 96.4% | residual activity (DCLK2 (human)): 89.2% | residual activity (DDR2 (human)): 89.9% | residual activity (DMPK (human)): 94.4% | residual activity (EPHA7 (human)): 97.2% | residual activity (EPHA8 (human)): 98% | residual activity (FGFR1 (human)): 96% | residual activity (FGFR3 (human)): 95.2% | residual activity (GRK4 (human)): 93.7% | residual activity (GSG2 (human)): 99.2% | residual activity (HCK (human)): 95.1% | residual activity (HIPK2 (human)): 92.1% | residual activity (IKBKE (human)): 91.4% | residual activity (INSRR (human)): 97.9% | residual activity (MAPK12 (human)): 93.7% | residual activity (MAPK13 (human)): 103% | residual activity (MARK4 (human)): 84.1% | residual activity (MST4 (human)): 94.8% | residual activity (NEK7 (human)): 95.5% | residual activity (PAK4 (human)): 87.4% | residual activity (PKN2 (human)): 100% | residual activity (PLK1 (human)): 101% | residual activity (PRKCB1 (human)): 97.3% | residual activity (PRKCZ (human)): 98.3% | residual activity (RPS6KA5 KD2 (human)): 95.3% | residual activity (RPS6KB2 (human)): 102% | residual activity (SGK2 (human)): 99.4% | residual activity (SRC (human)): 97% | residual activity (STK11 (human)): 101% | residual activity (STK17A (human)): 90.9% | residual activity (TAOK1 (human)): 82.8% | residual activity (TGFBR2 (human)): 101% | residual activity (WEE1 (human)): 85.8% | residual activity (WNK2 (human)): 113% | residual activity (YES1 (human)): 84.4% | residual activity (ZAP70 (human)): 100%

O=C1NC(=O)/C(=C/c2ccc3c(c2)OC(F)(F)O3)S1
residual activity (AKT2 (human)): 96.2% | residual activity (BLK (human)): 99.2% | residual activity (BMX (human)): 99.6% | residual activity (CDK4 CCND3 (human)): 98.2% | residual activity (CDK5 CDK5R1 p25 (human)): 89.7% | residual activity (CDK7 CCNH MNAT1 (human)): 98.3% | residual activity (CSNK1D (human)): 98.9% | residual activity (DCLK2 (human)): 99.7% | residual activity (DDR2 (human)): 90.1% | residual activity (DMPK (human)): 97.5% | residual activity (EPHA7 (human)): 98.7% | residual activity (EPHA8 (human)): 93.8% | residual activity (FGFR1 (human)): 94.3% | residual activity (FGFR3 (human)): 96.4% | residual activity (GRK4 (human)): 102% | residual activity (GSG2 (human)): 96.7% | residual activity (HCK (human)): 89.8% | residual activity (HIPK2 (human)): 104% | residual activity (IKBKE (human)): 101% | residual activity (INSRR (human)): 110% | residual activity (MAPK12 (human)): 92.8% | residual activity (MAPK13 (human)): 101% | residual activity (MARK4 (human)): 97.8% | residual activity (MST4 (human)): 86.8% | residual activity (NEK7 (human)): 105% | residual activity (PAK4 (human)): 90% | residual activity (PKN2 (human)): 113% | residual activity (PLK1 (human)): 92.9% | residual activity (PRKCB1 (human)): 97.7% | residual activity (PRKCZ (human)): 103% | residual activity (RPS6KA5 KD2 (human)): 91.1% | residual activity (RPS6KB2 (human)): 101% | residual activity (SGK2 (human)): 82.2% | residual activity (SRC (human)): 98.4% | residual activity (STK11 (human)): 96.9% | residual activity (STK17A (human)): 90.4% | residual activity (TAOK1 (human)): 90% | residual activity (TGFBR2 (human)): 107% | residual activity (WEE1 (human)): 88.8% | residual activity (WNK2 (human)): 113% | residual activity (YES1 (human)): 87.9% | residual activity (ZAP70 (human)): 99.2%

— the kinase profiling compilation of Christmann-Franck et al. (2016)
